A word on the inhibition: it is the change of the read-out against control, counted positive when it falls. As a reminder, the IC50 is the concentration needed to halve the response being measured.

Here are results for 7 compounds from patent EP0818443B1, “Mercaptoketones and mercaptoalcohols, a process for their preparation and their use as inhibitors of matrix metalloproteinases” (American Cyanamid Company, priority 1996, dated 1998).

Assay [1] concerns the target T1, human recombinant fibroblast collagenase (Homo sapiens, UniProt P03956).
T1 construct: human recombinant fibroblast collagenase (truncated, mw 18,828, WAR, Radnor)
T1 sequence (P03956 100-269 limits assumed): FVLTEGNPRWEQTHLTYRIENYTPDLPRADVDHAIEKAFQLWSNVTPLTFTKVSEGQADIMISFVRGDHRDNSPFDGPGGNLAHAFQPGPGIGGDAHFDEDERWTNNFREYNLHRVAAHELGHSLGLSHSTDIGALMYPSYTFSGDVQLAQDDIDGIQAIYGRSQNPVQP
Description: Collagenase inhibition in vitro (fluorogenic peptide substrate). Format: biochemical. The method, then: The assay is based on the cleavage of a peptide substrate ((Dnp-Pro-Cha-Gly-Cys(Me)-His-Ala-Lys(NMa)-NH2), Peptide International, Inc.) by collagenase releasing the fluorescent NMa group which is quantitated on the fluorometer. Dnp quenches the NMa fluorescence in the intact substrate. The assay is run in HCBC assay buffer (50mM HEPES, pH 7.0, 5mM Ca^+2, 0.02% Brij, 0.5% cysteine), with human recombinant fibroblast collagenase (truncated, mw 18,828, WAR, Radnor). Substrate is dissolved in methanol and stored frozen in 1mM aliquots. Collagenase is stored frozen in buffer in 25 µM aliquots. For the assay, substrate is dissolved in HCBC buffer to a final concentration of 10 µM and collagenase to a final concentration of 5nM. Compounds are dissolved in methanol, DMSO, or HCBC. The methanol and DMSO are diluted in HCBC to <1%. Compounds are added to the 96 well plate containing enzyme and the reaction is started by the addition of substrate.
The reaction is read (excitation 340 nm, emission 444nm) for 10 minutes and the increase in fluorescence over time is plotted as a linear line. The slope of the line is calculated and represents the reaction rate.
The linearity of the reaction rate is confirmed (r^2>0.85). The mean of the control rate is calculated and compared for statistical significance (p<0.05) with drug-treated rates using Dunnett's multiple comparison test. Dose-response relationships can be generated using multiple doses of drug and IC50 values with 95% CI are estimated using linear regression (IPRED, HTB) (Bickett, D. M. et al., A High Throughput Fluorogenic Substrate For Interstitial Collagenase (MMP-1) and Gelatinase (MMP-9), Anal. Biochem. 212, 58-64 (1993)).

In assay [2] the target is T2, human recombinant stromelysin (Homo sapiens, UniProt P08254).
T2 construct: human recombinant stromelysin (truncated, Affymax); purchased Affymax
The assay is described as follows: Stromelysin inhibition in vitro (thiopeptide substrate, DTNB). The format is biochemical. The method, then:
The assay is based on the cleavage of the thiopeptide substrate ((Ac-Pro-Leu-Gly(2-mercapto-4-methylpentanoyl)Leu-Gly-OEt), Bachem Bioscience) by the enzyme stromelysin, releasing the substrate product which forms a colorimetric reaction with DTNB ((5,5'-dithiobis(2-nitrobenzoic acid)). The thiopeptide substrate is made up as a 20mM stock in 100% DMSO and stored frozen while the DTNB stock is dissolved in 100% DMSO and stored as a 100mM stock at room temperature. Both the substrate and DTNB are diluted to 1mM with assay buffer (50mM HEPES, pH 7.0, 5 mM CaCl2) before use. The stock of human recombinant stromelysin (truncated, Affymax) is diluted with assay buffer to a final concentration of 12.5 nM in the reaction.
The enzyme, DTNB, and substrate (10µM final concentration) with/without inhibitor (total reaction volume of 200µL) is added to a 96 well plate and then the increase in color is monitored spectrophotometrically for 5 minutes at 405 nanometers (nm) on a plate reader. The increase in OD405 is plotted and the slope of the line is calculated which represents the reaction rate.
The mean of the control rate is calculated and compared for statistical significance (p<0.05) with drug-treated rates using Dunnett's multiple comparison test. Dose-response relationships can be generated using multiple doses of drug and IC50 values with 95% Cl are estimated using linear regression (IPRED, HTB) (Weingarten and Feder, Spectrophometric Assay For Vertebrate Collagenase, Anal. Biochem 147, 437-440 (1985)).

The target in the next assay is gelatinase (Homo sapiens, UniProt P14780). Description: In vivo MMP inhibition (enzyme in implanted dialysis tubing). Further details: species or system rat (Sprague-Dawley) or mouse (CD-1). The method, then:
A 2 cm piece of dialysis tubing (molecular weight cut-off 12-14,000, 10 mm flat width) containing matrix metalloproteinase enzyme (stromelysin, collagenase or gelatinase in 0.5 mL of buffer) is implanted either ip or sc (in the back) of a rat (Sprague-Dawley, 150-200g) or mouse (CD-1, 25-50g) under anesthesia. Drugs are administered PO, IP, SC or IV through a canula in the jugular vein. Drugs are administered in a dose volume of 0.1 to 0.25 mL/animal. Contents of the dialysis tubing is collected and enzyme activity assayed.
Enzyme reaction rates for each dialysis tube are calculated. Tubes from at least 3 different animals are used to calculate the mean± sem. Statistical significance (p<0.05) of vehicle-treated animals versus drug-treated animals is determined by analysis of variance. (Agents and Actions 21: 331, 1987)

Assay [3] has as its target T3, human neutrophil gelatinase B (Homo sapiens, UniProt P14780).
T3 construct: human neutrophil gelatinase B; from tissue; host or cells: human neutrophils
Description: Gelatinase inhibition in vitro (thiopeptide substrate, DTNB). The format is biochemical. How it is done: The increase in OD405 is plotted and the slope of the line is calculated which represents the reaction rate.
The mean of the control rate is calculated and compared for statistical significance (p<0.05) with drug-treated rates using Dunnett's multiple comparison test.

The next assay addresses MMP stromelysin (Homo sapiens, UniProt P08254). Conditions: WO 9407481; cited from earlier work.

T2 sequence (P08254 100-272 limits assumed): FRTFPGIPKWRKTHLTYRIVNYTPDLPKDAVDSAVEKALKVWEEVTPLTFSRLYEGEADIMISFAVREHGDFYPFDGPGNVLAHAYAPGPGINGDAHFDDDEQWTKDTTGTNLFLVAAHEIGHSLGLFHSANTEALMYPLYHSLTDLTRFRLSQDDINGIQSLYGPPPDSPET
Sequence of gelatinase (P14780 94-707): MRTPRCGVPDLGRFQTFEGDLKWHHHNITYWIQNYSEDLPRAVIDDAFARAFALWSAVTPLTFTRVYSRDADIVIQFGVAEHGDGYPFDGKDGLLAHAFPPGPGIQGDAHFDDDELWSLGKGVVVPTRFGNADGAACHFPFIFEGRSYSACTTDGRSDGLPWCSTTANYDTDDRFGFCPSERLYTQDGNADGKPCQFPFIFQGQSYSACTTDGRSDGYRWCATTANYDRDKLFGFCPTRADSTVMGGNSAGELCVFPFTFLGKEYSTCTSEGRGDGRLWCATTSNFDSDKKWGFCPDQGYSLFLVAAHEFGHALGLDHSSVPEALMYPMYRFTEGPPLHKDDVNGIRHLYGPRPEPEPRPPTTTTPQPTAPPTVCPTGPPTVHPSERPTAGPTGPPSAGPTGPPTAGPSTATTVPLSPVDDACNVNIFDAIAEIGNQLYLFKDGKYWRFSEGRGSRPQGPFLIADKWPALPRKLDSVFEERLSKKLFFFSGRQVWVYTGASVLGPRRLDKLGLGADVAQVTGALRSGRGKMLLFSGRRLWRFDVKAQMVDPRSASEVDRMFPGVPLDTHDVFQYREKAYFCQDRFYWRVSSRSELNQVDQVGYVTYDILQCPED
T3 sequence (P14780 94-707): as above
Sequence of MMP stromelysin (P08254 100-477): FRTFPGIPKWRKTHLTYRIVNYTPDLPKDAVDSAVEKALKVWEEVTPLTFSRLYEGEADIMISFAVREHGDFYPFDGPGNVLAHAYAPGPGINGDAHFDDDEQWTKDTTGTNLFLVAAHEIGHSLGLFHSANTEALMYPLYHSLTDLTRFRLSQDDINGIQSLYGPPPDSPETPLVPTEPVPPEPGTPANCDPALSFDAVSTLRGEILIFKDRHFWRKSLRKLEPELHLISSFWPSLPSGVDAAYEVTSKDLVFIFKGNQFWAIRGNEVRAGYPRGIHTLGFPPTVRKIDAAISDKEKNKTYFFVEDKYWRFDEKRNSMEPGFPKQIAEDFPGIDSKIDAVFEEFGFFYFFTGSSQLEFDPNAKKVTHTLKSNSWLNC

As to `CNC(=O)[C@@H](NC(=O)[C@H](CC(C)C)C[C@@H](O)CSC(c1ccccc1)(c1ccccc1)c1ccccc1)C(C)(C)C` [Example 35, (2R,4R)-4-Hydroxy-2-isobutyl-5-tritylsulfanylpentanoic acid ((1S)-2,2-dimethyl-1-methylcarbamoylpropyl)amide], the figures for the inhibition at 1 µM in assay [1] (@1µM) and in assay [2] were 72% and 38%, respectively. Moreover, the “in vivo % gelatinase inhibition” value at gelatinase (50mpk (milligrams/kilogram)) is 0.44/50mpk %.
Regarding `CNC(=O)[C@@H](NC(=O)[C@H](CC(C)C)C[C@@H](O)CS)C(C)(C)C` [Example 39, (2R,4R)-4-Hydroxy-2-isobutyl-5-mercaptopentanoic acid ((1S)-2,2-dimethyl-1-methylcarbamoylpropyl)amide], the 50% inhibitory concentration (IC50) in assay [1] was 228 nM; in assay [3], 106 nM. Besides, at gelatinase (50mpk (milligrams/kilogram)), the “in vivo % gelatinase inhibition” value is listed as 20.4/50 mpk %.
Consider `CCCCCCC[C@H](C[C@H](O)CS)C(=O)N[C@H](C(=O)NC)C(C)(C)C` [Example 38, (2R)-2-((2S)-2-Hydroxy-3-mercaptopropyl)nonanoic acid ((1S)-2,2-dimethyl-1-methylcarbamoylpropyl)amide], for which the half-maximal inhibitory concentration (IC50) in assay [1] was 30 nM. For the same compound, the “in vivo % gelatinase inhibition” value on gelatinase (50mpk (milligrams/kilogram)) is reported as 22.2/50mpk %.
As to `CC(C)C[C@H](NC(=O)[C@@H](CS)CCc1ccccc1)C(=O)Nc1ccccc1`, on MMP stromelysin, the “inhibitor of the MMP stromelysin” value is “moderate”.
Take `CCCCCCC[C@H](CC(=O)CS)C(=O)N[C@H](C(=O)NC)C(C)(C)C` [Example 43, (2R)-2-(3-Mercapto-2-oxopropyl)nonanoic acid ((1S)-2,2-dimethyl-1-methylcarbamoylpropyl)amide]: the concentration for half-maximal inhibition (IC50) stood at 30 nM in assay [1] and 28 nM in assay [2]. The “in vivo % gelatinase inhibition” value at gelatinase (50mpk (milligrams/kilogram)) is 0.73/50mpk* %.
On to `CNC(=O)[C@@H](NC(=O)[C@H](CC(C)C)C[C@H](O)CS)C(C)(C)C` [Example 40, (2R,4S)-4-Hydroxy-2-isobutyl-5-mercaptopentanoic acid ((1S)-2,2-dimethyl-1-methylcarbamoylpropyl)amide], for which the IC50 in assay [1] stood at 41 nM; in assay [3] it was 19 nM. Besides, the “in vivo % gelatinase inhibition” value at gelatinase (50mpk (milligrams/kilogram)) was 84.8/50mpk %.
As to `CNC(=O)[C@@H](NC(=O)[C@@H](CC(=O)CS)CC(C)C)C(C)(C)C` [Example 44, (2R)-2-Isobutyl-5-mercapto-4-oxopentanoic acid ((1S)-2,2-dimethyl-1-methylcarbamoylpropyl)amide], in assay [1], the half-maximal inhibitory concentration (IC50) is 38 nM. Moreover, the inhibition at 1 µM in assay [2] is 58%. For the same compound, the “in vivo % gelatinase inhibition” value at gelatinase (60mpk (milligrams/kilogram)) is recorded as 4.8/60mpk %.
